Results reported in article PMC12455390, “Three Is Better than One: A Multimetal Complex that Triggers Immunogenic Cell Death” (Angewandte Chemie (International Ed. in English), 2025).
Read-outs that look alike come from different tables or passages of the source.

Legend:
[1] = tested on: reducing enzymes, such as lipoamide dehydrogenase, glutathione reductase, and TrxR; type: cell-based
Experimental: We thus explored several targets in addition to cellular and organelle uptake after 24 h incubation. A lipoate‐to‐dihydrolipoate reduction assay in HCT‐116 cells was used to evaluate the ability of the complexes to inhibit reducing enzymes, such as lipoamide dehydrogenase, glutathione reductase, and TrxR.^[ [25] ^]
In short, HCT-116 cells were harvested and seeded at a density of 10,000 cells/well in 96-well culture plates. Following an overnight incubation at 37°C under a 5% CO2 atmosphere, the medium was replaced, and the cells incubated with 1 µM of each complex for additional 24 hr. Thereafter, the media were removed from each well, which were then washed with 200 μL of HBSS solution. Finally, 100 µL of 5 mM lipoate and 1 mM of DTNB solutions were added to each well. The absorbance of each well at 405 nm was recorded immediately and once every 20 min for one hour using a microplate reader. Plates were covered with aluminum foil between readings.

[2] = biological target: T1, human TrxR1 (Homo sapiens, UniProt Q16881); assay: Isolated TrxR1 inhibition (DTNB assay); type: biochemical; settings: 75 min incubation at 37 °C
T1 construct: purchased SeLENOZYME
T1 sequence (Q16881 1-499 isoform Q16881-5): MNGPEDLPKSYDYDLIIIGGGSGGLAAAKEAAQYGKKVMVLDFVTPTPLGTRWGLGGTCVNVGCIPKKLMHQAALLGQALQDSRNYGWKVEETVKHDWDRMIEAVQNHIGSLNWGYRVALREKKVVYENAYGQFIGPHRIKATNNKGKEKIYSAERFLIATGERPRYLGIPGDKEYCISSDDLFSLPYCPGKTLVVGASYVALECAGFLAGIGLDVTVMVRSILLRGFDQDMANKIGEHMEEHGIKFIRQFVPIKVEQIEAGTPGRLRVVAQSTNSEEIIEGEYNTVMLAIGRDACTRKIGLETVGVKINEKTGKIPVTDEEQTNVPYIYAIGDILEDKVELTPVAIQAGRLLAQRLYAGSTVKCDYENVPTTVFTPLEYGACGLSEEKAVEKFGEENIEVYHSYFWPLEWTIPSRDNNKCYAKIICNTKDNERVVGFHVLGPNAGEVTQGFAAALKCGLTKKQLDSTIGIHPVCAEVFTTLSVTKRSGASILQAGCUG
Experimental: (§1) A number of gold and ruthenium complexes are known to inhibit members of the TrxR enzyme family.^[ [27] ^] […] We thus sought to evaluate the activity of our gold‐ and ruthenium‐containing complexes against TrxR1 (found in the cytoplasm) and TrxR2 (found in the mitochondria).
(§2) Human TrxR1 and TrxR2 were purchased from SeLENOZYME and inhibition studies were carried out by means of a DTNB assay in 96-well culture plates. Enzymes were diluted to achieve a concentration of 3.58 U mL^−1. The compounds subject to testing were freshly dissolved in DMF. 10 μL aliquots of the enzyme solution and 10 μL of solutions of the compounds at graded concentrations or 10 μL of 1% DMF in PBS (positive control) were added and incubated for 75 min at 37 °C. A second control consisted of 10 µL of the highest concentration of each compound with 10 µL of PBS. After the chosen incubation time, 10 µL of NADPH (10 mM), 160 µL TE buffer (50 mM Tris-HCl, 2 mM EDTA, pH 7.5) and 10 µL ethanolic DTNB (50 mM) were added producing a total reaction volume of 200 µL. After proper mixing, the formation of 5-TNB was monitored with a microplate reader at 405 nm. This was done 10 times at 30 second intervals over the course of about 5 min. A TNB standard curve (0-2 mM in 200 µL TE buffer) was used to calculate the exact DTNB consumed in the reaction with linear region slopes being calculated by plotting A405 vs time (min). The IC50 values representing the concentration of compound serving to decrease the enzymatic activity of the untreated control by 50% were calculated and are given as the mean and standard error of three repeated experiments. The combination index (CI) was calculated using the Chou-Talalay method^6

[3] = biological target: T2, human TrxR2 (Homo sapiens, UniProt Q9NNW7); assay: Isolated TrxR2 inhibition (DTNB assay); type: biochemical; settings: 75 min incubation at 37 °C
T2 construct: purchased SeLENOZYME
Experimental: as §1, §2

[4] = tested on: A2780 (ovarian carcinoma); assay: Antiproliferative MTT assay, A2780; type: cell-based, human; settings: A2780, 72 h incubation
Experimental: (§3) We examined the antiproliferative activity of the heterometallic complexes 3–5 and compared them against their monometallic constituent components, as well as a physical 1:1:1 mixture of 1 + Oxa + 2 after 72 h incubation across a panel of five cancer cell lines: A2780 (ovarian carcinoma), A2780cis (ovarian carcinoma resistant to cisplatin, also referred to as A2780CP), CT26 WT (murine colorectal carcinoma), A375 (melanoma), and PC9 (non‐small cell lung cancer).
(§4) A375 melanoma cells (5000 cells/well), PC9 […] cells (5000 cells/well), CT26 WT murine colon carcinoma cells (5000 cells/well), A2780 ovarian carcinoma cells (5000 cells/well), and A2780cis cisplatin-resistant ovarian carcinoma cells (7000 cells/well), were seeded in flat-bottom 96-well plates in their respective cell culture media (100 µL) and incubated at 37°C in a 5% CO2 environment for 24 h. After that, the media were replaced with the fresh media. Stock solutions of the compounds in DMSO or in cell culture medium (for Oxa) were freshly prepared and diluted with the respective cell culture medium to graded concentrations (final concentration of DMSOmax: 0.5% v/v). After 72 h of exposure, the media were removed and 100 µL of 0.5 mg/mL 3-(4,5-dimethylthiazol-2-yl)-2,5-diphenyl tetrazolium bromide (MTT) in DMEM or RPMI were added and the plate in question further incubated for an additional 1 h. The media containing the MTT solution was removed and the resulting formazan crystals were dissolved in 100 µL DMSO. The absorbance of the solution in each well was read at 570 nm using a BioTek Cytation3 plate reader. The IC50 value, which is the drug concentration needed for 50% reduction in survival, based on the survival curve, was calculated by fitting nonlinear curves in GraphPad Prism 5 Ver 5.03, using a normalized response variable slope model constructed by plotting cell viability (%) vs log of the concentration of the complex in question in nM. The results are presented as the mean values of three independent experiments.

[5] = tested on: A2780cis (ovarian carcinoma resistant to cisplatin); assay: Antiproliferative MTT assay, A2780cis; type: cell-based, human; settings: A2780 CisR, 72 h incubation
Experimental: as §3, §4

[6] = tested on: CT26 WT (murine colorectal carcinoma); assay: Antiproliferative MTT assay, CT26 WT; type: cell-based; settings: CT 26 WT, 72 h incubation
Experimental: as §3, §4

[7] = tested on: A375 (melanoma); assay: Antiproliferative MTT assay, A375; type: cell-based, human; settings: A375, 72 h incubation
Experimental: as §3, §4

[8] = tested on: PC9 (non-small cell lung cancer); assay: Antiproliferative MTT assay, PC9; type: cell-based, human; settings: PC9, 72 h incubation
Experimental: as §3, §4

[9] = tested on: HCT-116 cells; assay: Total cellular metal accumulation (ICP-MS); type: cell-based; settings: 1 µM, 24 h
Experimental: It is important to note the TrxR assay was performed using isolated enzymes. […] Recognizing this, we incubated HCT‐116 cells with 1 µM of complexes 1–5 for 24 h and quantified the total metal content via ICP‐MS (Figure 4a).
1 x 10^6 HCT-116 cells were seeded in a 6-well plate (2 mL RPMI-1640). After incubating overnight, the medium was replaced, and the cells were treated with the test compounds (1 µM) for 24 h. The resulting cell monolayers were washed twice with cold PBS, harvested and counted in PBS for a total volume of 400 µL. Samples were divided, and each was mineralized with 1 mL aqua regia and evaporated to dryness on a 110 °C hot plate overnight. Later, 1 mL of 2% HCl + 1% thiourea was added to each vial. Samples were quantified via ICP-MS. Metal accumulation levels were determined using the relative isotopic prevalence of ^195Pt, ^101Ru, and ^197Au.

[10] = tested on: CT26 cells; assay: Extracellular HMGB1 release (ELISA); type: cell-based, murine; settings: IC50 concentrations, 24 h
Experimental: Oxa alone produced a modest effect, consistent with its known ICD profile.^[ [5] ^]
1 x 10^6 CT-26 cells were seeded in a 6-well plate (2 mL RPMI-1640). […] The HMGB1 release of the supernatant was quantified using HMGB1 Detection Kit ELISA (Chondrex, Catalog 6010) according to the manufacturer’s instructions.

T2 sequence (Q9NNW7 37-524): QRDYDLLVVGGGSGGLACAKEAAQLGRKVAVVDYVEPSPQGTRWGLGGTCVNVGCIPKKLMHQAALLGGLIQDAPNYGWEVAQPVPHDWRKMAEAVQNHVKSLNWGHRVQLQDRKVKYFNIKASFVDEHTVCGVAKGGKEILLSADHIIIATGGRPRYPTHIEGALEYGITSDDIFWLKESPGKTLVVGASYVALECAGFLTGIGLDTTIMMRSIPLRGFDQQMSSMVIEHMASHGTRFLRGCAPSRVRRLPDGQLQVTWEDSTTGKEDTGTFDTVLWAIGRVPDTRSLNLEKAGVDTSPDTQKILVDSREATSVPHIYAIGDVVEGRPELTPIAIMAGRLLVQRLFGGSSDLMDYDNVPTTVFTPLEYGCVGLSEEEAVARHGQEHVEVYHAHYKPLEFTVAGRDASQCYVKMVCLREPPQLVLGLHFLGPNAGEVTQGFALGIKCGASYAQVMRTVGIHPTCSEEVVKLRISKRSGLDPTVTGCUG

| Compound | dihydrolipoate production relative to control ([1]; HCT-116 cells, 1 µM, 24 h) | IC50 [2] [µM] | IC50 [3] [µM] | IC50 [4] [µM] | IC50 [5] [µM] | IC50 [6] [µM] | IC50 [7] [µM] | IC50 [8] [µM] | dihydrolipoate production relative to control [1] | total cellular metal uptake [9] | Extracellular HMGB1 release [10] |
| --- | --- | --- | --- | --- | --- | --- | --- | --- | --- | --- | --- |
| CC(=O)OC[C@H]1O[C@@H]([S-])[C@H](OC(C)=O)[C@@H](OC(C)=O)[C@@H]1OC(C)=O.CCP(CC)CC.[Au+] [Auranofin, reference compound] | 55% | 0.06 ± 0.02 | 0.22 ± 0.04 | – | – | – | – | – | – | – | – |
| Cc1ccc(C(C)C)cc1.O=C(O)c1ccc(NC(=S)c2ccccn2)cc1.[Cl-].[Cl][Ru+] [Complex 1, [Chlorido(η6-p-cymene)(N-(4-benzoic acid)-2-pyridinecarbothioamide)ruthenium(II)] chloride] | – | 3.44 ± 0.32 | 4.36 ± 0.41 | 15.7 ± 4.3 | > 40 | > 40 | > 40 | > 40 | activity similar to untreated cells (control) | low accumulation of ruthenium | – |
| Cc1cc(C)c(-n2ccn(CCOC(=O)NCCN)[c]2=[Au-3]=[c]2n(-c3c(C(C)C)cccc3C(C)C)c3c(n2-c2c(C(C)C)cccc2C(C)C)C(=O)c2ccccc2C3=O)c(C)c1.O=C([O-])C(F)(F)F [Complex 2, (1-(2-(((2-Aminoethyl)carbamoyl)oxy)ethyl)-3-mesityl-1,3-dihydro-2H-2λ3-imidazol-2-yl)(1,3-bis(2,6-diisopropylphenyl)-4,9-dioxo-1,3,4,9-tetrahydro-2H-2λ3-naphtho[2,3-d]imidazol-2-yl)gold (I) TFA salt] | 72% | 1.62 ± 0.13 | 1.27 ± 0.21 | 0.34 ± 0.08 | 0.56 ± 0.09 | 14.9 ± 0.4 | 2.48 ± 0.35 | 0.49 ± 0.13 | – | – | – |
| O=C1[O][Pt]2([NH][C@@H]3CCCC[C@H]3[NH]2)[O]C1=O [Oxa, oxaliplatin, reference compound] | activity similar to untreated cells (control) | 25.6 ± 3.7 | 28.2 ± 2.9 | 0.29 ± 0.03 | 1.01 ± 0.22 | 20 ± 1.4 | 3.16 ± 0.49 | 8.2 ± 1 | – | – | modest effect |
